Blank lines part the entries; values can stand above or below the compound they belong to.
Experiments:
Substance-P receptor [1] = target: Substance-P receptor (Homo sapiens, UniProt P25103, H265A); assay: Tested for binding affinity against H265A mutant NK1 receptor using [125]SP radioligand in COS cells.; assay type: cell-based
Substance-K receptor [2] = target: T1, Substance-K receptor (Homo sapiens, UniProt P21452); assay: Tested for binding affinity against Tachykinin receptor 2 expressed in CHO cells, using [125]SP as radioligand.; assay type: cell-based
T1 sequence (P21452 whole entry): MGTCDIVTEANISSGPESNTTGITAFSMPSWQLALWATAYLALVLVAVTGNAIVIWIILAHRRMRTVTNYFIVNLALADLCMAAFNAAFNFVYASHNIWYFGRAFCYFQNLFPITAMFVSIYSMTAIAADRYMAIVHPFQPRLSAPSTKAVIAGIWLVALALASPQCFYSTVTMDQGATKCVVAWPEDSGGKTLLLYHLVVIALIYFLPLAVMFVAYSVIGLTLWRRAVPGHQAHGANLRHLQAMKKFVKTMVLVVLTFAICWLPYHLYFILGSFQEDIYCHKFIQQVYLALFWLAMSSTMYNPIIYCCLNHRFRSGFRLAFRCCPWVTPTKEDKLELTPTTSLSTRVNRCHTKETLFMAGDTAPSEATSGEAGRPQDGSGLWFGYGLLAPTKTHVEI

Substance-P receptor [3] = target: Substance-P receptor (Homo sapiens, UniProt P25103, Q165A); assay: Tested for binding affinity against Q165A mutant NK1 receptor expressed in CHO cells, using [125]SP as radioligand; assay type: cell-based
Sequence of Substance-P receptor (Homo sapiens, UniProt P25103, Q165A) (P25103 whole entry Q165A): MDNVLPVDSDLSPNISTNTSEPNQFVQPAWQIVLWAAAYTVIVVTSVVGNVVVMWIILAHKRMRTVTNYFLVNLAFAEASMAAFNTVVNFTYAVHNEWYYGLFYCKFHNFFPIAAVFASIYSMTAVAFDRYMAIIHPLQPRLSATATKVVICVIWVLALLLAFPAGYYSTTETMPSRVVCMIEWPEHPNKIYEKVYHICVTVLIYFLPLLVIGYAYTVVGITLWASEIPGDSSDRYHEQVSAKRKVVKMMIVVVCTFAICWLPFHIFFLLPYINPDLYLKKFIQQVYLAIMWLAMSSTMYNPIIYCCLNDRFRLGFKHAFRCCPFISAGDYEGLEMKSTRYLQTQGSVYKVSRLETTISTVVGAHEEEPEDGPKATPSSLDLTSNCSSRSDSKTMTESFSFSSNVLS

Substance-P receptor [4] = target: T2, Substance-P receptor (Homo sapiens, UniProt P25103); assay: Tested for binding affinity against human wild type NK1 receptor expressed in CHO cells, using [125]SP as radioligand.; assay type: cell-based
T2 sequence (P25103 whole entry): as the sequence (P25103 whole entry Q165A) above, with A165Q counted along it

Substance-P receptor [5] = target: Substance-P receptor (Homo sapiens, UniProt P25103, H197A); assay: Tested for binding affinity against H197A mutant NK1 receptor using [125]SP radioligand in COS cells.; assay type: cell-based
Sequence of Substance-P receptor (Homo sapiens, UniProt P25103, H197A) (P25103 whole entry H197A): as the sequence (P25103 whole entry Q165A) above, with A165Q, H197A counted along it

Substance-P receptor [6] = target: T2, Substance-P receptor; assay: Tested for binding affinity against Tachykinin receptor 1 expressed in CHO cells, using [125]SP as radioligand.; assay type: cell-based
Substance-P receptor [7] = target: T2, Substance-P receptor; assay: Tested for binding affinity against Tachykinin receptor 1 expressed in CHO cells, using [125]SP as radioligand; NA - did not bind; assay type: cell-based
Substance-K receptor [8] = target: T1, Substance-K receptor; assay: Tested for binding affinity against Tachykinin receptor 2 expressed in CHO cells, using [125]SP as radioligand; NA - did not bind; assay type: cell-based
[9] = tested on: Substance-P receptor (Homo sapiens), P25103 [Q165A]; assay: Inhibition against Q165A mutant NK1 receptor expressed in CHO cells, using [125]SP as radioligand at 1 uM; assay type: cell-based
Sequence of Substance-P receptor (Homo sapiens), P25103 [Q165A] (P25103 whole entry Q165A): as the sequence (P25103 whole entry Q165A) above

Substance-P receptor [10] = target: T2, Substance-P receptor; assay: Tested for binding affinity against Tachykinin receptor 1
Somatostatin receptor = assay: Tested for binding affinity against somatostatin receptor on AtT-20 cells; assay type: cell-based; conditions: att20
[11] = target: Somatostatin receptor type 4 (Homo sapiens, UniProt P31391); assay: Tested for binding affinity against human somatostatin receptor subtype 4 (hSSTR4)
Sequence of Somatostatin receptor type 4 (P31391 whole entry): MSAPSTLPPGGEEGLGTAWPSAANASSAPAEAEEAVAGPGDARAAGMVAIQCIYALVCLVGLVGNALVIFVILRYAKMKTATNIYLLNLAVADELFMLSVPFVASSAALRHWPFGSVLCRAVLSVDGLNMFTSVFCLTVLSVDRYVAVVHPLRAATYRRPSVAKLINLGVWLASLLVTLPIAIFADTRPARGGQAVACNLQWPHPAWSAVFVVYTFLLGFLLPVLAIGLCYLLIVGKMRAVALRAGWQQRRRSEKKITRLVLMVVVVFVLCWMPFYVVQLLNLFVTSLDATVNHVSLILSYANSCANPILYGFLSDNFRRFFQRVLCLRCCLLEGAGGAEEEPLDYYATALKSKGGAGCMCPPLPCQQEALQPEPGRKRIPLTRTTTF

Substance-P receptor [12] = target: T2, Substance-P receptor; assay: Tested for binding affinity against Tachykinin receptor 1 expressed in CHO cells, using [125]SP as radioligand at 1 uM; assay type: cell-based

Sequence of Substance-P receptor (Homo sapiens, UniProt P25103, H265A) (P25103 whole entry H265A): as the sequence (P25103 whole entry Q165A) above, with A165Q, H265A counted along it

IC50 (Substance-P receptor [1]): 8200 nM
IC50 (Substance-K receptor [2]): 730 nM
IC50 (Substance-P receptor [3]): 3600 nM
IC50 (Substance-P receptor [4]): 1400 nM
IC50 (Substance-P receptor [5]): 2700 nM
SMILES: C[C@H](NC(=O)CN)C(=O)N[C@H]1CSSC[C@@H](C(=O)O)NC(=O)[C@H](CO)NC(=O)[C@H]([C@@H](C)O)NC(=O)[C@H](Cc2ccccc2)NC(=O)[C@H]([C@@H](C)O)NC(=O)[C@H](Cc2ccc(F)cc2)NC(=O)[C@H](Cc2c[nH]c3ccccc23)NC(=O)[C@H](Cc2ccccc2)NC(=O)[C@H](Cc2ccccc2)NC(=O)[C@H](CC(N)=O)NC(=O)[C@H](CCCCN)NC1=O

IC50 (Substance-P receptor [1]): 6100 nM
IC50 (Substance-P receptor [6]): 220 nM
IC50 (Substance-K receptor [2]): 27 nM
IC50 (Substance-P receptor [4]): 240 nM
IC50 (Substance-P receptor [5]): 950 nM
SMILES: C[C@H](NC(=O)CN)C(=O)N[C@H]1CSSC[C@@H](C(=O)O)NC(=O)[C@H](CO)NC(=O)[C@H]([C@@H](C)O)NC(=O)[C@H](Cc2ccccc2)NC(=O)[C@H]([C@@H](C)O)NC(=O)[C@H](Cc2ccc(F)cc2)NC(=O)[C@@H](Cc2c[nH]c3ccccc23)NC(=O)[C@H](Cc2ccccc2)NC(=O)[C@H](Cc2ccccc2)NC(=O)[C@H](CC(N)=O)NC(=O)[C@H](CCCCN)NC1=O

IC50 (Substance-P receptor [7]): Not Active
IC50 (Substance-K receptor [8]): Not Active
SMILES: C[C@H](NC(=O)CN)C(=O)N[C@H]1CSSC[C@H](C(=O)O)NC(=O)[C@H](CO)NC(=O)[C@H]([C@@H](C)O)NC(=O)[C@H](Cc2ccccc2)NC(=O)[C@H]([C@@H](C)O)NC(=O)[C@H](CCCCN)NC(=O)[C@@H](Cc2c[nH]c3ccccc23)NC(=O)[C@H](Cc2ccccc2)NC(=O)[C@H](Cc2ccccc2)NC(=O)[C@H](CC(N)=O)NC(=O)[C@H](CCCCN)NC1=O

inhibition [9]: 37%
SMILES: C[C@@H](O)[C@@H]1NC(=O)[C@H](Cc2ccc(F)cc2)NC(=O)[C@@H](Cc2c[nH]c3ccccc23)NC(=O)[C@H](Cc2ccccc2)NC(=O)[C@H](Cc2ccccc2)NC(=O)[C@H](CC(N)=O)NC(=O)[C@H](CCCCN)NC(=O)[C@@H](N)CSSC[C@H](C(=O)O)NC(=O)[C@H](CO)NC(=O)[C@H]([C@@H](C)O)NC(=O)[C@H](Cc2ccccc2)NC1=O

IC50 (Substance-P receptor [10]): 120 nM
SMILES: NCCCCCOC[C@H]1O[C@@H](OCCc2c[nH]c3ccccc23)[C@H](OCc2ccccc2)[C@@H](OCc2ccccc2)[C@@H]1OCc1ccccc1

The remaining lines, values behind:

SMILES: C[C@H](NC(=O)CN)C(=O)N[C@H]1CSSC[C@H](C(=O)O)NC(=O)[C@H](CO)NC(=O)[C@H]([C@@H](C)O)NC(=O)[C@H](Cc2ccccc2)NC(=O)[C@H]([C@@H](C)O)NC(=O)[C@H](Cc2ccc(F)cc2)NC(=O)[C@@H](Cc2c[nH]c3ccccc23)NC(=O)[C@H](Cc2ccccc2)NC(=O)[C@H](Cc2ccccc2)NC(=O)[C@H](CC(N)=O)NC(=O)[C@H](CCCCN)NC1=O
inhibition [9]: 30%

SMILES: C[C@@H](O)[C@@H]1NC(=O)[C@H](Cc2ccccc2)NC(=O)[C@H]([C@@H](C)O)NC(=O)[C@H](Cc2ccc(F)cc2)NC(=O)[C@@H](Cc2c[nH]c3ccccc23)NC(=O)[C@H](Cc2ccccc2)NC(=O)[C@H](Cc2ccccc2)NC(=O)[C@H](CC(N)=O)NC(=O)[C@H](CCCCN)NC(=O)[C@@H](N)CSSC[C@@H](C(=O)O)NC(=O)[C@H](CO)NC1=O
IC50 (Substance-P receptor [1]): 9600 nM
IC50 (Substance-P receptor [6]): 250 nM
IC50 (Substance-K receptor [2]): 46 nM
IC50 (Substance-P receptor [4]): 260 nM
IC50 (Substance-P receptor [5]): 900 nM

SMILES: C[C@@H](O)[C@@H]1NC(=O)[C@H](Cc2ccc(F)cc2)C2C(=O)[C@@H](Cc3c2[nH]c2ccccc32)NC(=O)[C@H](Cc2ccccc2)NC(=O)[C@@H]2CCCC2C(=O)[C@H](Cc2ccccc2)NC1=O (stereo not given in full)
IC50 (Substance-P receptor [10]): 28 nM

SMILES: C[C@H](NC(=O)CN)C(=O)N[C@H]1CSSC[C@@H](C(=O)O)NC(=O)[C@H](CO)NC(=O)[C@H]([C@@H](C)O)NC(=O)[C@H](Cc2ccccc2)NC(=O)[C@H]([C@@H](C)O)NC(=O)[C@H](CCCCN)NC(=O)[C@H](Cc2c[nH]c3ccccc23)NC(=O)[C@H](Cc2ccccc2)NC(=O)[C@H](Cc2ccccc2)NC(=O)[C@H](CC(N)=O)NC(=O)[C@H](CCCCN)NC1=O
IC50 (Substance-K receptor [2]): 850 nM

SMILES: C[C@@H](O)[C@@H]1NC(=O)[C@H](CCCCN)C2C(=O)[C@@H](Cc3c2[nH]c2ccccc32)NC(=O)[C@H](Cc2ccccc2)NC(=O)[C@@H]2CCCC2C(=O)[C@H](Cc2ccccc2)NC1=O (stereo not given in full)
IC50 (Somatostatin receptor): 15000 nM
IC50 [11]: 100 nM

SMILES: C[C@H](NC(=O)CN)C(=O)N[C@H]1CSSC[C@H](C(=O)O)NC(=O)[C@H](CO)NC(=O)[C@H]([C@@H](C)O)NC(=O)[C@H](Cc2ccccc2)NC(=O)[C@H]([C@@H](C)O)NC(=O)[C@H](CCCCN)NC(=O)[C@H](Cc2c[nH]c3ccccc23)NC(=O)[C@H](Cc2ccccc2)NC(=O)[C@H](Cc2ccccc2)NC(=O)[C@H](CC(N)=O)NC(=O)[C@H](CCCCN)NC1=O
inhibition (Substance-P receptor [12]): 7%

Reference: ChEMBL document CHEMBL1133015 (J Med Chem, 2000)
